Results taken from US9744222B2, “Peptide for vaccine” (Circassia Limited, priority 2007, dated 2017).
Where a SMILES comes first, the peptide text is derived from it.

Tests used:
[1] = Solubility pre-screen of peptides; conditions: pre-screened for solubility in an aqueous, acidic milieu; YES/NO
Procedure: Methods The assay employed is a competitive MHC class II binding assay, wherein each peptide is analysed for its ability to displace a known control binder from each of the human MHC class II allotypes investigated.
Also shown is the solubility status of the peptide at the highest concentrations in the aqueous solution of the binding assay. The value illustrates the lowest concentration at which an insoluble white precipitate is seen.

[2] = Precipitation in aqueous solution of the binding assay; type: physicochemical
Source text: This is a characteristic of promiscuous HLA-DRB1* binders.

PBMC's = test: Cytokine release assay (IL-13, IFN-gamma); type: cell-based, human; conditions: IL-13 or IFN-gamma response greater than 100 pg/ml
Procedure: Cytokine secretion profiles from PBMC's are analysed in response to the peptide stimulation using the peptides from Example 3.
Thus, an individual was considered to have responded to a peptide if cells from that individual yielded a response greater than 100 pg/ml for either […] or IFN-gamma.

[3] = lowest concentration at which an insoluble white precipitate is seen in the aqueous solution of the binding assay
[4] = lowest concentration at which an insoluble white precipitate is seen, value in brackets

Row | Molecule | Solubility test [1] | other results
1 | CC[C@H](C)[C@H](NC(=O)[C@H](C)NC(=O)[C@H](C)NC(=O)[C@@H](NC(=O)[C@H](C)NC(=O)[C@H](CCC(=O)O)NC(=O)[C@H](CC(=O)O)NC(=O)[C@@H](NC(=O)[C@H](C)NC(=O)[C@@H](N)CCCCN)C(C)C)C(C)C)C(=O)N[C@@H](CCC(=O)O)C(=O)N[C@@H](CCCCN)C(=O)N[C@@H](CO)C(=O)O [HDM28] (H-KAVDEAVAAIEKS-OH; N-terminus and C-terminus assumed) | YES | 
2 | CSCC[C@H](NC(=O)[C@@H]1CCCN1C(=O)[C@H](CC(=O)O)NC(=O)[C@H](Cc1ccccc1)NC(=O)[C@@H](NC(=O)[C@@H](N)CCC(=O)O)[C@@H](C)O)C(=O)N[C@@H](CCCCN)C(=O)N[C@H](C(=O)N1CCC[C@H]1C(=O)N[C@@H](CC(=O)O)C(=O)N[C@@H](Cc1c[nH]cn1)C(=O)N[C@@H](CO)C(=O)N[C@@H](CC(=O)O)C(=O)N[C@@H](CCCCN)C(=O)O)C(C)C [HDM29A] (H-ETFDPMKVPDHSDK-OH; N-terminus and C-terminus assumed) | YES | 
3 | CSCC[C@H](NC(=O)[C@@H]1CCCN1C(=O)[C@H](CC(=O)O)NC(=O)[C@H](Cc1ccccc1)NC(=O)[C@@H](NC(=O)[C@H](CCC(=O)O)NC(=O)[C@H](CO)NC(=O)[C@@H](N)CCCCN)[C@@H](C)O)C(=O)N[C@@H](CCCCN)C(=O)N[C@H](C(=O)N1CCC[C@H]1C(=O)N[C@@H](CC(=O)O)C(=O)N[C@@H](Cc1c[nH]cn1)C(=O)N[C@@H](CO)C(=O)N[C@@H](CC(=O)O)C(=O)O)C(C)C [HDM29B] (H-KSETFDPMKVPDHSD-OH; N-terminus and C-terminus assumed) | YES | 
4 | CSCC[C@H](NC(=O)[C@@H]1CCCN1C(=O)[C@H](CC(=O)O)NC(=O)[C@H](Cc1ccccc1)NC(=O)[C@@H](NC(=O)[C@@H](N)CCC(=O)O)[C@@H](C)O)C(=O)N[C@@H](CCCCN)C(=O)N[C@H](C(=O)N1CCC[C@H]1C(=O)N[C@@H](CC(=O)O)C(=O)N[C@@H](Cc1c[nH]cn1)C(=O)N[C@@H](CO)C(=O)N[C@@H](CC(=O)O)C(=O)O)C(C)C [HDM29] (H-ETFDPMKVPDHSD-OH; N-terminus and C-terminus assumed) | YES | 
5 | CC[C@H](C)[C@H](NC(=O)CNC(=O)[C@@H](NC(=O)[C@H](Cc1c[nH]cn1)NC(=O)[C@H](CCCNC(=N)N)NC(=O)[C@H](CCC(=O)O)NC(=O)[C@H](Cc1ccccc1)NC(=O)[C@H](CCCCN)NC(=O)[C@@H](N)CC(=O)O)[C@@H](C)CC)C(=O)N[C@H](C(=O)N[C@@H](CC(=O)O)C(=O)N[C@@H](CC(C)C)C(=O)N[C@@H](CCCCN)C(=O)O)[C@@H](C)CC [HDM30] (H-DKFERHIGIIDLK-OH; N-terminus and C-terminus assumed) | YES | 
6 | CC[C@H](C)[C@H](NC(=O)CNC(=O)[C@@H](NC(=O)[C@@H](N)Cc1c[nH]cn1)[C@@H](C)CC)C(=O)N[C@H](C(=O)N[C@@H](CC(=O)O)C(=O)N[C@@H](CC(C)C)C(=O)N[C@@H](CCCCN)C(=O)NCC(=O)N[C@@H](CCC(=O)O)C(=O)N[C@@H](CC(C)C)C(=O)N[C@@H](CC(=O)O)C(=O)N[C@@H](CCSC)C(=O)N[C@@H](CCCNC(=N)N)C(=O)N[C@@H](CC(N)=O)C(=O)O)[C@@H](C)CC [HDM31A] (H-HIGIIDLKGELDMRN-OH; N-terminus and C-terminus assumed) | YES | 
7 | CC[C@H](C)[C@H](N)C(=O)N[C@@H](CC(=O)O)C(=O)N[C@@H](CC(C)C)C(=O)N[C@@H](CCCCN)C(=O)NCC(=O)N[C@@H](CCC(=O)O)C(=O)N[C@@H](CC(C)C)C(=O)N[C@@H](CC(=O)O)C(=O)N[C@@H](CCSC)C(=O)N[C@@H](CCCNC(=N)N)C(=O)N[C@@H](CC(N)=O)C(=O)N[C@H](C(=O)N[C@@H](CCC(N)=O)C(=O)N[C@H](C(=O)N[C@@H](CCCNC(=N)N)C(=O)O)C(C)C)[C@@H](C)CC [HDM32A] (H-IDLKGELDMRNIQVR-OH; N-terminus and C-terminus assumed) | YES | 
8 | CC[C@H](C)[C@H](N)C(=O)N[C@@H](CC(=O)O)C(=O)N[C@@H](CC(C)C)C(=O)N[C@@H](CCCCN)C(=O)NCC(=O)N[C@@H](CCC(=O)O)C(=O)N[C@@H](CC(C)C)C(=O)N[C@@H](CC(=O)O)C(=O)N[C@@H](CCSC)C(=O)N[C@@H](CCCNC(=N)N)C(=O)N[C@@H](CC(N)=O)C(=O)N[C@H](C(=O)N[C@@H](CCC(N)=O)C(=O)O)[C@@H](C)CC [HDM32] (H-IDLKGELDMRNIQ-OH; N-terminus and C-terminus assumed) | YES | 
9 | CC[C@H](C)[C@H](NC(=O)[C@H](CC(N)=O)NC(=O)[C@H](CCCNC(=N)N)NC(=O)[C@H](CCSC)NC(=O)[C@H](CC(=O)O)NC(=O)[C@@H](N)CC(C)C)C(=O)N[C@@H](CCC(N)=O)C(=O)N[C@H](C(=O)N[C@@H](CCCNC(=N)N)C(=O)NCC(=O)N[C@@H](CC(C)C)C(=O)N[C@@H](CCCCN)C(=O)N[C@@H](CCC(N)=O)C(=O)O)C(C)C [HDM33] (H-LDMRNIQVRGLKQ-OH; N-terminus and C-terminus assumed) | YES | 
10 | CC[C@H](C)[C@H](NC(=O)[C@H](CC(N)=O)NC(=O)[C@@H](N)CCCNC(=N)N)C(=O)N[C@@H](CCC(N)=O)C(=O)N[C@H](C(=O)N[C@@H](CCCNC(=N)N)C(=O)NCC(=O)N[C@@H](CC(C)C)C(=O)N[C@@H](CCCCN)C(=O)N[C@@H](CCC(N)=O)C(=O)N[C@@H](CCSC)C(=O)N[C@@H](CCCCN)C(=O)N[C@@H](CCCNC(=N)N)C(=O)N[C@H](C(=O)NCC(=O)O)C(C)C)C(C)C [HDM34] (H-RNIQVRGLKQMKRVG-OH; N-terminus and C-terminus assumed) | YES | 
11 | CSCC[C@H](NC(=O)[C@H](CCC(N)=O)NC(=O)[C@H](CCCCN)NC(=O)[C@H](CC(C)C)NC(=O)CNC(=O)[C@@H](N)CCCNC(=N)N)C(=O)N[C@@H](CCCCN)C(=O)N[C@@H](CCCNC(=N)N)C(=O)N[C@H](C(=O)NCC(=O)N[C@@H](CC(=O)O)C(=O)N[C@@H](C)C(=O)N[C@@H](CC(N)=O)C(=O)O)C(C)C [HDM35] (H-RGLKQMKRVGDAN-OH; N-terminus and C-terminus assumed) | YES | 
12 | CC(C)[C@H](NC(=O)[C@H](CCCNC(=N)N)NC(=O)[C@@H](N)CCCCN)C(=O)NCC(=O)N[C@@H](CC(=O)O)C(=O)N[C@@H](C)C(=O)N[C@@H](CC(N)=O)C(=O)N[C@H](C(=O)N[C@@H](CCCCN)C(=O)N[C@@H](CO)C(=O)N[C@@H](CCC(=O)O)C(=O)N[C@@H](CC(=O)O)C(=O)NCC(=O)O)C(C)C [HDM36] (H-KRVGDANVKSEDG-OH; N-terminus and C-terminus assumed) | YES | 
13 | CC(C)[C@H](NC(=O)CNC(=O)[C@H](CC(=O)O)NC(=O)[C@H](CCC(=O)O)NC(=O)[C@H](CO)NC(=O)[C@H](CCCCN)NC(=O)[C@@H](NC(=O)[C@H](CC(N)=O)NC(=O)[C@H](C)N)C(C)C)C(=O)N[C@H](C(=O)N[C@@H](CCCCN)C(=O)N[C@@H](C)C(=O)N[C@@H](Cc1c[nH]cn1)C(=O)O)C(C)C [HDM37] (H-ANVKSEDGVVKAH-OH; N-terminus and C-terminus assumed) | YES | 
14 | CC[C@H](C)[C@H](NC(=O)[C@H](C)NC(=O)[C@@H](N)[C@@H](C)O)C(=O)N[C@@H](Cc1ccccc1)C(=O)N[C@@H](CCC(N)=O)C(=O)N[C@@H](CC(=O)O)C(=O)N[C@H](C(=O)N[C@H](C(=O)N[C@@H](CCCNC(=N)N)C(=O)N[C@@H](C)C(=O)N[C@@H](CCC(=O)O)C(=O)N[C@@H](CCSC)C(=O)N[C@H](C(=O)N[C@@H](CCCCN)C(=O)O)[C@@H](C)O)C(C)C)[C@@H](C)O [HDM48] (H-TAIFQDTVRAEMTK-OH; N-terminus and C-terminus assumed) | YES | 
15 | CSCC[C@H](NC(=O)[C@H](CCC(=O)O)NC(=O)[C@H](C)NC(=O)[C@H](CCCNC(=N)N)NC(=O)[C@@H](NC(=O)[C@@H](NC(=O)[C@@H](N)CC(=O)O)[C@@H](C)O)C(C)C)C(=O)N[C@H](C(=O)N[C@@H](CCCCN)C(=O)N[C@H](C(=O)N[C@@H](CC(C)C)C(=O)N[C@@H](C)C(=O)N1CCC[C@H]1C(=O)O)C(C)C)[C@@H](C)O [HDM49] (H-DTVRAEMTKVLAP-OH; N-terminus and C-terminus assumed) | YES | 
16 | CC(C)C[C@H](NC(=O)[C@H](CCC(=O)O)NC(=O)[C@H](CCCCN)NC(=O)[C@H](CCCCN)NC(=O)[C@H](Cc1ccccc1)NC(=O)[C@H](C)NC(=O)[C@@H]1CCCN1C(=O)[C@H](C)NC(=O)[C@H](CC(C)C)NC(=O)[C@@H](NC(=O)[C@@H](N)CCCCN)C(C)C)C(=O)N[C@@H](CCC(=O)O)C(=O)N[C@@H](CCCNC(=N)N)C(=O)O [HDM50] (H-KVLAPAFKKELER-OH; N-terminus and C-terminus assumed) | YES | 
17 | HDDVVSMEYDLAYKL [HDM39A] |  | Precipitation in assay [2, 3]: 10000 µM; Precipitation in assay [2, 4]: (1.8 mg/ml)
18 | SYYRYVAREQS [HDM205] |  | Ranking of peptides by percentage of responders (in words) (PBMC's): top five peptides
19 | VSMEYDLAYKLGDLH [HDM40A] |  | Precipitation in assay [2, 3]: 10000 µM; Precipitation in assay [2, 4]: (1.8 mg/ml)
